According to patent US11415579B2, “Assay for measuring a rate of reaction between a target and a ligand candidate” (Imperial College Innovations Ltd., priority 2016, dated 2022):

Assays:
Cdk2(S276C) (C177A) = molecular target: T1, Cdk2(S276C) (C177A) (Homo sapiens, UniProt P24941, C177A/S276C); assay: Kinetic thiol consumption assay with Cdk2 mutant S276C; format: binding; parameters: key to Rate enhancement, Cdk2 S276C: rate constant with Cdk2 ÷ rate constant with model thiol (fold); conditions: additional mutation C177A; for Rate constant with Cdk2 S276C: Protein: Cdk2, cysteine position S276C, in h^-1
T1 construct: poly-histidine; made in house; host or cells: E. coli
Method in brief: (§1)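 5 μM thiol, degassed phosphate pH 8, 2% v/v immobilized TCEP beads; 1 h RT; fluorescence ex 380/em 470 nm; normalized vs DMSO/thiol-only; first-order exponential decay fit → rate constant; Cdk2 k / model-thiol k = rate enhancement per acrylamide.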

Cdk2(R122C) (C177A) = molecular target: T2, Cdk2(R122C) (C177A) (Homo sapiens, UniProt P24941, C177A/R122C); assay: Kinetic thiol consumption assay with Cdk2 mutant R122C; format: binding; parameters: key to Rate enhancement, Cdk2 R122C: rate constant with Cdk2 ÷ rate constant with model thiol (fold); conditions: additional mutation C177A; for Rate constant with Cdk2 R122C: Protein: Cdk2, cysteine position R122C, in h-1
T2 construct: poly-histidine; made in house; host or cells: E. coli
Method in brief: as §1

Cdk2(T182C) (C177A) = molecular target: T3, Cdk2(T182C) (C177A) (Homo sapiens, UniProt P24941, C177A/T182C); assay: Kinetic thiol consumption assay with Cdk2 mutant T182C; format: binding; parameters: key to Rate enhancement, Cdk2 T182C: rate constant with Cdk2 ÷ rate constant with model thiol (fold); conditions: additional mutation C177A; for Rate constant with Cdk2 T182C: Protein: Cdk2, cysteine position T182C, in h^-1
T3 construct: poly-histidine; made in house; host or cells: E. coli
Method in brief: as §1

Cdk2(H71C) (C177A) = molecular target: T4, Cdk2(H71C) (C177A) (Homo sapiens, UniProt P24941, C177A/H71C); assay: Kinetic thiol consumption assay with Cdk2 mutant H71C; format: binding; parameters: key to Rate enhancement, Cdk2 H71C: rate constant with Cdk2 ÷ rate constant with model thiol (fold); conditions: additional mutation C177A; for Rate constant with Cdk2 H71C: Protein: Cdk2, cysteine position H71C, in h^-1
T4 construct: poly-histidine; made in house; host or cells: E. coli
Method in brief: as §1

Cdk2(C177A, F80C) = molecular target: T5, Cdk2(C177A, F80C) (Homo sapiens, UniProt P24941, C177A/F80C); assay: Kinetic thiol consumption assay with Cdk2 mutant F80C, incl. kobs versus concentration (Kd, k2); format: binding; parameters: key to Rate enhancement, Cdk2 F80C: Cdk2 rate constant divided by model-thiol rate constant; conditions: additional mutation C177A; for Rate constant with Cdk2 F80C: Protein: Cdk2, cysteine position F80C, in h^-1
T5 construct: poly-histidine; made in house; host or cells: E. coli
Method in brief: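 His-tagged Cdk2(C177A/F80C) from E. coli or model thiol, 5 μM in degassed phosphate buffer pH 8 with TCEP beads, reacted with acrylamide ligands; fluorescence (ex/em 380/470 nm) normalized to DMSO control and fitted to first-order decay for kobs. Kd and k2 obtained from hyperbolic fit of kobs versus ligand concentration.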

Cdk2(S181C) (C177A) = molecular target: T6, Cdk2(S181C) (C177A) (Homo sapiens, UniProt P24941, C177A/S181C); assay: Kinetic thiol consumption assay with Cdk2 mutant S181C; format: binding; parameters: key to Rate enhancement, Cdk2 S181C: rate constant with Cdk2 ÷ rate constant with model thiol (fold); conditions: additional mutation C177A; for Rate constant with Cdk2 S181C: Protein: Cdk2, cysteine position S181C, in h^-1
T6 construct: poly-histidine; made in house; host or cells: E. coli
Method in brief: as §1

[1] = molecular target: T7, human cyclin-dependent kinase 2 (Cdk2) (Homo sapiens, UniProt P24941); assay: Kinetic thiol consumption assay with wild type Cdk2 (C177); format: binding; parameters: key to Rate enhancement, Cdk2 WT: k(Cdk2) divided by k(model thiol); Rate constant with Cdk2 (k(Cdk2)): unit not given here; conditions: for Rate constant with Cdk2 (k(Cdk2)): 500 μM ligand, 5 μM thiol, phosphate buffer pH 8; for Rate enhancement, Cdk2 WT: no additional mutations; for Rate constant with Cdk2 WT: Protein: Cdk2, cysteine position WT, in h^-1; for k(Cdk2)/k(Cdk2_mut) rate enhancement: model thiol Cdk2[C177A, F80C, K278C]; for k(Cdk2)/k(GSH) rate enhancement: model thiol glutathione
T7 construct: poly-histidine; made in house; host or cells: E. coli
Method in brief: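 His-tagged human Cdk2 from E. coli (sole surface cysteine C177) or a model thiol, each 5 μM in degassed phosphate buffer pH 8 with immobilized TCEP, reacted with acrylamides at room temperature. Fluorescence (ex 380/em 470) normalized to DMSO/thiol control over time; first-order rate constants, Cdk2 rate divided by model-thiol rate.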

[2] = Kinetic thiol consumption assay with model thiol glutathione; format: physicochemical; parameters: Rate constant with glutathione (k(GSH)): unit not given here; conditions: for Rate constant with glutathione (k(GSH)): 500 μM ligand, 5 μM thiol, phosphate buffer pH 8; for Rate constant with Glutathione: Protein: Glutathione, cysteine position NA, in h-1
Method in brief: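 First, 5 μM glutathione in degassed phosphate buffer (pH 8) receives immobilized TCEP beads (2% v/v). Then acrylamide is added and plates incubate 1 h at room temperature. Finally, fluorescence (380/470 nm) is normalized and fitted to first-order decay for rate constants.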

Cdk2[C177A, F80C, K278C] = molecular target: T8, Cdk2[C177A, F80C, K278C] (Homo sapiens, UniProt P24941, C177A/F80C/K278C); assay: Kinetic thiol consumption assay with mutant Cdk2 as model thiol; format: binding; parameters: unit not given here; conditions: 500 μM ligand, 5 μM thiol, phosphate buffer pH 8
T8 construct: poly-histidine; made in house; host or cells: E. coli
Method in brief: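 Model thiol: His-tagged human Cdk2 C177A/F80C/K278C (two engineered surface cysteines), E. coli-expressed, 5 μM in degassed phosphate buffer pH 8 with immobilized TCEP beads (2% v/v). Fluorescence (ex/em 380/470 nm) followed over time at room temperature, normalized to DMSO/thiol control. First-order decay fit gives rate constants.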

Cdk2(N272C) (C177A) = molecular target: T9, Cdk2(N272C) (C177A) (Homo sapiens, UniProt P24941, C177A/N272C); assay: Kinetic thiol consumption assay with Cdk2 mutant N272C; format: binding; parameters: key to Rate enhancement, Cdk2 N272: rate constant with Cdk2 ÷ rate constant with model thiol (fold); conditions: for Rate enhancement, Cdk2 N272: Cdk2 N272, additional mutation C177A; for Rate constant with Cdk2 N272C: Protein: Cdk2, cysteine position N272C, additional mutation C177A, in h^-1
T9 construct: poly-histidine; made in house; host or cells: E. coli
Method in brief: as §1

SMILES	Rate enhancement, Cdk2 S276C (Cdk2(S276C) (C177A))	Rate constant with Cdk2 S276C (Cdk2(S276C) (C177A))	Rate enhancement, Cdk2 R122C (Cdk2(R122C) (C177A))	Rate constant with Cdk2 R122C (Cdk2(R122C) (C177A))	Rate enhancement, Cdk2 T182C (Cdk2(T182C) (C177A))	Rate constant with Cdk2 T182C (Cdk2(T182C) (C177A))	Rate enhancement, Cdk2 H71C (Cdk2(H71C) (C177A))	Rate enhancement, Cdk2 F80C (Cdk2(C177A, F80C))	Rate constant with Cdk2 F80C (Cdk2(C177A, F80C))	Rate enhancement, Cdk2 S181C (Cdk2(S181C) (C177A))	Rate constant with Cdk2 (k(Cdk2)) [1]	Rate enhancement, Cdk2 WT [1]	Rate constant with Cdk2 WT [1]	k(Cdk2)/k(Cdk2_mut) rate enhancement [1]	k(Cdk2)/k(GSH) rate enhancement [1]	Rate constant with Cdk2[C177A, F80C, K278C] (k(Cdk2_mut)) (Cdk2[C177A, F80C, K278C])	Rate enhancement, Cdk2 N272 (Cdk2(N272C) (C177A))	Rate constant with Cdk2 N272C (Cdk2(N272C) (C177A))	Rate constant with glutathione (k(GSH)) [2]	Rate constant with Glutathione [2]	other results
C=CC(=O)NC1C2C3CCC(C3)C12 (centres unmarked) [CA-097]	0.8141	0.008009	0.3499	0.003442	1.447	0.01424	0.1566	0.1887	0.001856	0	0.00152	0.1544	0.001519	0.3735	0.2854	0.00407	0.5898	0.005802	0.00533	0.009838	Rate constant with Cdk2 H71C (Cdk2(H71C) (C177A)): 0.001541
C=CC(=O)N1CCC2(CCCCCC2)C1 [CA-093]	1.327	0.0176	0.311	0.004124	4.072	0.05399	0.5753	1.271	0.01686	0.776	0.00196	0.2573	0.003412	0.3873	0.2651	0.00507	0.4207	0.005578	0.0074	0.01326	Rate constant with Cdk2 H71C (Cdk2(H71C) (C177A)): 0.007628; Rate constant with Cdk2 S181C (Cdk2(S181C) (C177A)): 0.01029
C=CC(=O)Nc1cccc2ncccc12 [CA-012]	0.9852	0.05118	0.6897	0.03583	5.8	0.3013	0.317	3.888	0.202	2.504	0.09635	1.855	0.09635	0.2318	1.877	0.4157	0.4189	0.02176	0.05132	0.05195	Rate constant with Cdk2 H71C (Cdk2(H71C) (C177A)): 0.01647; Rate constant with Cdk2 S181C (Cdk2(S181C) (C177A)): 0.1301
C=CC(=O)N1CCc2sccc2C1c1cccs1 (centres unmarked) [CA-056]	1.776	0.03094	0.7819	0.01362	18.35	0.3197	1.254	4.984	0.08682	2.069	0.02004	1.15	0.02004	0.1472	1.152	0.1361	1.548	0.02696	0.0174	0.01742	Rate constant with Cdk2 H71C (Cdk2(H71C) (C177A)): 0.02185; Rate constant with Cdk2 S181C (Cdk2(S181C) (C177A)): 0.03604

Now from value to molecule, other results behind:

Rate enhancement, Cdk2 S276C (Cdk2(S276C) (C177A))	Rate constant with Cdk2 S276C (Cdk2(S276C) (C177A))	Rate enhancement, Cdk2 R122C (Cdk2(R122C) (C177A))	Rate constant with Cdk2 R122C (Cdk2(R122C) (C177A))	Rate enhancement, Cdk2 T182C (Cdk2(T182C) (C177A))	Rate constant with Cdk2 T182C (Cdk2(T182C) (C177A))	Rate enhancement, Cdk2 H71C (Cdk2(H71C) (C177A))	Rate enhancement, Cdk2 F80C (Cdk2(C177A, F80C))	Rate constant with Cdk2 F80C (Cdk2(C177A, F80C))	Rate enhancement, Cdk2 S181C (Cdk2(S181C) (C177A))	Rate constant with Cdk2 (k(Cdk2)) [1]	Rate enhancement, Cdk2 WT [1]	Rate constant with Cdk2 WT [1]	k(Cdk2)/k(Cdk2_mut) rate enhancement [1]	k(Cdk2)/k(GSH) rate enhancement [1]	Rate constant with Cdk2[C177A, F80C, K278C] (k(Cdk2_mut)) (Cdk2[C177A, F80C, K278C])	Rate enhancement, Cdk2 N272 (Cdk2(N272C) (C177A))	Rate constant with Cdk2 N272C (Cdk2(N272C) (C177A))	SMILES	Rate constant with glutathione (k(GSH)) [2]	Rate constant with Glutathione [2]	other results
0.3514	0.008135	0.1363	0.003155	2.016	0.04668	0.1567	0.289	0.00669	0.343	0.01101	0.4756	0.01101	4.177	1.091	0.00264	0.2702	0.006256	C=CC(=O)N(c1ccc2c(c1)OCCO2)C1CC1 [CA-167]	0.01009	0.02315	Rate constant with Cdk2 H71C (Cdk2(H71C) (C177A)): 0.003628; Rate constant with Cdk2 S181C (Cdk2(S181C) (C177A)): 0.00794
0.7973	0.02403	0.259	0.007805	16.35	0.4929	3.388	9.237	0.2784	0.3942	0.07947	2.637	0.07947	0.3457	2.652	0.2299	0.04599	0.001386	C=CC(=O)Nc1ccc(C(=O)NC2CCCC2)cc1 [EL-1114]	0.02997	0.03014	Rate constant with Cdk2 H71C (Cdk2(H71C) (C177A)): 0.1021; Rate constant with Cdk2 S181C (Cdk2(S181C) (C177A)): 0.01188
1.226	0.005603	0.3414	0.00156	0.6691	0.003057	0	0.1378	0.0006296	0.6373	0.00298	0.6621	0.003025	0.8251	0.6464	0.00361	0.3701	0.001691	C=CC(=O)NC(C)c1ccc2c(c1)OCO2 (centres unmarked) [EL-1051]	0.00461	0.004569	Rate constant with Cdk2 S181C (Cdk2(S181C) (C177A)): 0.002912
